Like-named read-outs stand apart in the source and are kept apart here.
Key:
CSNK1A1 = CSNK1A1 (Homo sapiens (Human), UniProt P48729); assay: CSNK1A1 Assay 2 (ADP-Glo, 1 μM ATP, substrate biotin-Ahx-KRRRAL-pS-VASLPGL); assay type: biochemical; settings: median, read-out: CSNK1A1 Assay 2 IC50 [mol/l] (median)
Protocol: CSNK1A1-inhibitory activity of compounds of the present invention in presence of 1 μM adenosine-tri-phosphate (ATP) was quantified employing the CSNK1A1 assay as described in the following paragraphs. In essence, the enzyme activity is measured by quantification of the adenosine-di-phosphate (ADP), which is generated as a co-product of the enzyme reaction, via the “ADP-Glo™ Kinase Assay” kit from the company Promega. This detection system works as follows: In a first step the ATP not consumed in the kinase reaction is quantitatively converted to cAMP employing an adenylate cyclase (“ADP-Glo-reagent”), then the adenylate cyclase is stopped and the ADP generated in the kinase reaction converted to ATP which generates in a luciferase-based reaction a glow-luminescence signal (“Kinase Detection Reagent”).
Recombinant fusion protein of N-terminal Glutathion-S-Transferase (GST) and full-length human CSNK1A1, expressed by baculovirus infected insect cells and purified via Glutathion affinity chromatography, was purchased from Life Technologies (product no. PV4174) and used as enzyme. As substrate for the kinase reaction the biotinylated peptide biotin-Ahx-KRRRAL-pS-VASLPGL (C-terminus in amide form) was used which can be purchased e.g. from the company Biosyntan (Berlin-Buch, Germany).
For the assay 50 nl of a 100 fold concentrated solution of the test compound in DMSO was pipetted into a white 1536-well microtiter plate (Greiner Bio-One, Frickenhausen, Germany), 2 μL of a solution of CSNK1A1 in aqueous assay buffer [50 mM HEPES pH 7.5, 10% (v/v) glycerol, 10 mM MgCl2, 50 mM NaCl, 1 mM dithiothreitol, 0.01% (w/v) bovine serum albumin, 0.01% (v/v) Triton X-100] were added and the mixture was incubated for 15 min at 22° C. to allow pre-binding of the test compounds to the enzyme before the start of the kinase reaction. […] The concentration of CSNK1A1 was adjusted depending of the activity of the enzyme lot and was chosen appropriate to have the assay in the linear range, a typical concentrations are about 0.0375 ng/μL. The reaction was stopped by the addition of 2.5 μL of “ADP-Glo-reagent” (1:1.5 fold diluted with water) and the resulting mixture was incubated at 22° C. for 1 h to convert the ATP not consumed in the kinase reaction completely […]. Subsequently 2.5 μL of the “kinase detection reagent” (1.2 fold more concentrated than recommended by the producer) were added, the resulting mixture was incubated at 22° C. for 1 h and then the luminescence measured with a suitable measurement instrument (e.g. Viewlux™ from Perkin-Elmer). The amount of emitted light was taken as a measure for the amount of ADP generated and thereby for the activity of the CSNK1A1.

[1] = target: wild-type Epidermal Growth Factor Receptor (EGFR) (Homo sapiens (Human), UniProt P00533); assay: WT-EGFR Kinase Assay (TR-FRET, 2 mM ATP); assay type: biochemical
Outline: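 GST-fused human EGFR fragment (R669-A1210) from Sf9 cells, typically 7.6 pg/μL, pre-incubated with compound 15 min at 22° C in Hepes pH 7.0 buffer with MgCl2, DTT and vanadate; biotinylated peptide substrate. After EDTA stop, phosphopeptide detected by TR-FRET (anti-phosphotyrosine Tb-cryptate/streptavidin-XL665), 665/620 nm emission ratio.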

[2] = read-out: EGFR Wildtype 2 mM ATP IC50 [mol/l] (median)

Sequence of wild-type Epidermal Growth Factor Receptor (EGFR) (P00533 669-1210): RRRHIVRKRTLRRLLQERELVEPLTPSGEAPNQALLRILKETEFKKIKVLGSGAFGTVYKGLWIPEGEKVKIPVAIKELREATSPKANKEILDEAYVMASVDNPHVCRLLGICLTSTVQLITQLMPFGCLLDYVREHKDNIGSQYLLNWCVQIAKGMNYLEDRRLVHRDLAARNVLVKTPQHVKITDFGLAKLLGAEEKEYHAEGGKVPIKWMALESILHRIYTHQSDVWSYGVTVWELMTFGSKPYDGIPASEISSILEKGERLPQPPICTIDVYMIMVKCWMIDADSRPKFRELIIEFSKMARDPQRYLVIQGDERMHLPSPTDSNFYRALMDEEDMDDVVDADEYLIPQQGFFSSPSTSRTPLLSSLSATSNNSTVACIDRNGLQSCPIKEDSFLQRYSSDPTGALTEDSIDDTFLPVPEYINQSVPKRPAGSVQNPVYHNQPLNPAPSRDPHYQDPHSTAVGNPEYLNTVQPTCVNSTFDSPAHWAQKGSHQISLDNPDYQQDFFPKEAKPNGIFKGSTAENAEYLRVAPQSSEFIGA
Sequence of CSNK1A1 (P48729 whole entry): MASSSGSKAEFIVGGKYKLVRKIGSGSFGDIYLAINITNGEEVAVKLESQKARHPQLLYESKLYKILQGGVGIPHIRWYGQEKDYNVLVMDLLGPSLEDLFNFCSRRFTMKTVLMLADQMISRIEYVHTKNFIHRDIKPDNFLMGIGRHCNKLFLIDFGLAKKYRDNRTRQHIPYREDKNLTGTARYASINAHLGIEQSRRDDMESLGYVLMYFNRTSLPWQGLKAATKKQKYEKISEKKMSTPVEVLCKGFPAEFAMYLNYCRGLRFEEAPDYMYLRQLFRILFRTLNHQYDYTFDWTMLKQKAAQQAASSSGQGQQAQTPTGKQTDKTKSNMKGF

## O=C(Cc1ccc(F)cc1)Nc1cc(-c2[nH]c3cccnc3c2-c2ncccn2)ccn1 [Example 16, 2-(4-fluorophenyl)-N-{4-[3-(pyrimidin-2-yl)-1H-pyrrolo[3,2-b]pyridin-2-yl]pyridin-2-yl}acetamide]
CSNK1A1
  IC50: 4.77 nM
[1]; median
  IC50: 17.5 µM
[1]; [2]
  IC50: > 20 µM

## Cc1cc2[nH]c(-c3ccnc(NC(=O)C(C)c4ccc(F)cc4)c3)c(-c3ccccn3)c2nc1F (racemic) [Example 28, N-{4-[5-fluoro-6-methyl-3-(pyridin-2-yl)-1H-pyrrolo[3,2-b]pyridin-2-yl]pyridin-2-yl}-2-(4-fluorophenyl)propanamide]
CSNK1A1
  IC50: 4.61 nM
[1]; median
  IC50: > 20 µM

## CC(C(=O)Nc1cc(-c2[nH]c3cccnc3c2-c2ccccn2)ccn1)c1ccc(F)cc1 (single isomer, unassigned; (-)) [Example 8, (−)-2-(4-fluorophenyl)-N-{4-[3-(pyridin-2-yl)-1H-pyrrolo[3,2-b]pyridin-2-yl]pyridin-2-yl}propanamide]
CSNK1A1
  IC50: 7.53 nM
[1]; [2]
  IC50: > 20 µM

## Cc1cc(CC(=O)Nc2cc(-c3[nH]c4cccnc4c3-c3ccccn3)ccn2)ccc1F [Example 41, 2-(4-fluoro-3-methylphenyl)-N-{4-[3-(pyridin-2-yl)-1H-pyrrolo[3,2-b]pyridin-2-yl]pyridin-2-yl}acetamide]
CSNK1A1
  IC50: 4.03 nM
[1]; [2]
  IC50: > 20 µM

## CC(C)C(C(=O)Nc1cc(-c2[nH]c3ccc(F)nc3c2-c2ccccn2)ccn1)c1ccc(F)cc1 (single isomer, unassigned; (+)) [Example 26, (+)-2-(4-fluorophenyl)-N-{4-[5-fluoro-3-(pyridin-2-yl)-1H-pyrrolo[3,2-b]pyridin-2-yl]pyridin-2-yl}-3-methylbutanamide]
CSNK1A1
  IC50: 3.5 nM
[1]; [2]
  IC50: > 20 µM

## O=C(Cc1ccc(Cl)cc1)Nc1cc(-c2[nH]c3cccnc3c2-c2ccccn2)ccn1 [Example 42, 2-(4-chlorophenyl)-N-{4-[3-(pyridin-2-yl)-1H-pyrrolo[3,2-b]pyridin-2-yl]pyridin-2-yl}acetamide]
CSNK1A1
  IC50: 1.23 nM
[1]; [2]
  IC50: > 20 µM

## O=C(Cc1ccc(F)cc1)Nc1cc(-c2[nH]c3c(N4CCCC4=O)ccnc3c2-c2ccccn2)ccn1 [Example 40, 2-(4-fluorophenyl)-N-{4-[7-(2-oxopyrrolidin-1-yl)-3-(pyridin-2-yl)-1H-pyrrolo[3,2-b]pyridin-2-yl]pyridin-2-yl}acetamide]
CSNK1A1
  IC50: 6.26 nM
[1]; [2]
  IC50: > 20 µM

## COCC(C(=O)Nc1cc(-c2[nH]c3cc(F)cnc3c2-c2ccccn2)ccn1)c1ccc(F)cc1 (racemic) [Example 45, (2RS)-2-(4-fluorophenyl)-N-[4-[6-fluoro-3-(2-pyridyl)-1H-pyrrolo[3,2-b]pyridin-2-yl]-2-pyridyl]-3-methoxy-propanamide]
CSNK1A1
  IC50: 4.83 nM
[1]; median
  IC50: > 20 µM

## COCC(C(=O)Nc1cc(-c2[nH]c3cccnc3c2-c2ccccn2)ccn1)c1ccc(F)cc1 (racemic) [Example 43, (2RS)-2-(4-fluorophenyl)-3-methoxy-N-(4-(3-(pyridin-2-yl)-1H-pyrrolo[3,2-b]pyridin-2-yl)pyridin-2-yl)propanamide]
CSNK1A1
  IC50: 3.51 nM
[1]; median
  IC50: > 20 µM

## CCc1ccnc2c(-c3ccccn3)c(-c3ccnc(NC(=O)Cc4ccc(F)cc4)c3)[nH]c12 [Example 34, N-{4-[7-ethyl-3-(pyridin-2-yl)-1H-pyrrolo[3,2-b]pyridin-2-yl]pyridin-2-yl}-2-(4-fluorophenyl)acetamide]
CSNK1A1
  IC50: 3.08 nM
[1]; [2]
  IC50: > 20 µM

## O=C(Cc1ccc(F)cc1)Nc1cc(-c2[nH]c3ccnnc3c2-c2ccccn2)ccn1 [Example 21, 2-(4-fluorophenyl)-N-{4-[7-(pyridin-2-yl)-5H-pyrrolo[3,2-c]pyridazin-6-yl]pyridin-2-yl}acetamide]
CSNK1A1
  IC50: 1.66 nM
[1]; [2]
  IC50: > 20 µM

## Cc1cc2[nH]c(-c3ccnc(NC(=O)C(C)c4ccc(F)cc4)c3)c(-c3ccccn3)c2nc1F (single isomer, unassigned; (-)) [Example 30, (−)-N-{4-[5-fluoro-6-methyl-3-(pyridin-2-yl)-1H-pyrrolo[3,2-b]pyridin-2-yl]pyridin-2-yl}-2-(4-fluorophenyl)propanamide]
CSNK1A1
  IC50: 1.69 nM
[1]; [2]
  IC50: > 20 µM

## O=C(Cc1ccc(F)cc1)Nc1cc(-c2[nH]c3ccc(F)nc3c2-c2ccccn2)ccn1 [Example 4, 2-(4-fluorophenyl)-N-{4-[5-fluoro-3-(pyridin-2-yl)-1H-pyrrolo[3,2-b]pyridin-2-yl]pyridin-2-yl}acetamide]
CSNK1A1
  IC50: 0.739 nM
[1]; [2]
  IC50: > 20 µM

## CN1CCN(c2ccnc3c(-c4ccccn4)c(-c4ccnc(NC(=O)Cc5ccc(F)cc5)c4)[nH]c23)CC1 [Example 38, 2-(4-fluorophenyl)-N-{4-[7-(4-methylpiperazin-1-yl)-3-(pyridin-2-yl)-1H-pyrrolo[3,2-b]pyridin-2-yl]pyridin-2-yl}acetamide]
CSNK1A1
  IC50: 3.32 nM
[1]; [2]
  IC50: > 20 µM

## O=C(Cc1ccc(F)cc1)Nc1cc(-c2[nH]c3cc(F)cnc3c2-c2ccccn2)ccn1 [Example 9, 2-(4-fluorophenyl)-N-{4-[6-fluoro-3-(pyridin-2-yl)-1H-pyrrolo[3,2-b]pyridin-2-yl]pyridin-2-yl}acetamide]
CSNK1A1
  IC50: 1.68 nM
[1]; [2]
  IC50: > 20 µM

## Cc1cc2[nH]c(-c3ccnc(NC(=O)Cc4ccc(F)cc4)c3)c(-c3ccccn3)c2nc1F [Example 27, N-{4-[5-fluoro-6-methyl-3-(pyridin-2-yl)-1H-pyrrolo[3,2-b]pyridin-2-yl]pyridin-2-yl}-2-(4-fluorophenyl)acetamide]
CSNK1A1
  IC50: 1.6 nM
[1]; [2]
  IC50: > 20 µM

## O=C(Cc1ccc(F)cc1)Nc1cc(-c2[nH]c3cc(F)cnc3c2-c2ccccc2)ccn1 [Example 10, 2-(4-fluorophenyl)-N-[4-(6-fluoro-3-phenyl-1H-pyrrolo[3,2-b]pyridin-2-yl)pyridin-2-yl]acetamide]
CSNK1A1
  IC50: 3.83 nM
[1]; [2]
  IC50: > 20 µM

## CN1CCC(N(C)c2ccnc3c(-c4ccccn4)c(-c4ccnc(NC(=O)Cc5ccc(F)cc5)c4)[nH]c23)CC1 [Example 39, 2-(4-fluorophenyl)-N-(4-{7-[methyl(1-methylpiperidin-4-yl)amino]-3-(pyridin-2-yl)-1H-pyrrolo[3,2-b]pyridin-2-yl}pyridin-2-yl)acetamide]
CSNK1A1
  IC50: 3.49 nM
[1]; [2]
  IC50: 1.09 µM

## Cc1cc2[nH]c(-c3ccnc(NC(=O)C(C)c4ccc(F)cc4)c3)c(-c3ccccn3)c2nc1F (single isomer, unassigned; (+)) [Example 29, (+)-N-{4-[5-fluoro-6-methyl-3-(pyridin-2-yl)-1H-pyrrolo[3,2-b]pyridin-2-yl]pyridin-2-yl}-2-(4-fluorophenyl)propanamide]
CSNK1A1
  IC50: 13.8 nM
[1]; median
  IC50: > 20 µM

## C=Cc1ccnc2c(-c3ccccn3)c(-c3ccnc(NC(=O)Cc4ccc(F)cc4)c3)[nH]c12 [Example 33, N-{4-[7-ethenyl-3-(pyridin-2-yl)-1H-pyrrolo[3,2-b]pyridin-2-yl]pyridin-2-yl}-2-(4-fluorophenyl)acetamide]
CSNK1A1
  IC50: 3.97 nM
[1]; [2]
  IC50: 15.1 µM

## CC(C(=O)Nc1cc(-c2[nH]c3cccnc3c2-c2ccccc2)ccn1)c1ccc(F)cc1 (racemic) [Example 11, 2-(4-fluorophenyl)-N-[4-(3-phenyl-1H-pyrrolo[3,2-b]pyridin-2-yl)pyridin-2-yl]propanamide]
CSNK1A1
  IC50: 6.11 nM
[1]; median
  IC50: > 20 µM

## COCCC(C(=O)Nc1cc(-c2[nH]c3cccnc3c2-c2ccccn2)ccn1)c1ccc(F)cc1 (racemic) [Example 44]
CSNK1A1
  IC50: 4.97 nM
[1]; median
  IC50: > 20 µM

## CC(C)C(C(=O)Nc1cc(-c2[nH]c3ccc(F)nc3c2-c2ccccn2)ccn1)c1ccc(F)cc1 (single isomer, unassigned; (-)) [Example 25, (−)-2-(4-fluorophenyl)-N-{4-[5-fluoro-3-(pyridin-2-yl)-1H-pyrrolo[3,2-b]pyridin-2-yl]pyridin-2-yl}-3-methylbutanamide]
CSNK1A1
  IC50: 23.9 nM
[1]; median
  IC50: > 20 µM

## CC(C(=O)Nc1cc(-c2[nH]c3cccnc3c2-c2ccccn2)ccn1)c1ccc(F)cc1 (racemic) [Example 6, 2-(4-fluorophenyl)-N-{4-[3-(pyridin-2-yl)-1H-pyrrolo[3,2-b]pyridin-2-yl]pyridin-2-yl}propanamide]
CSNK1A1
  IC50: 1.73 nM
[1]; median
  IC50: > 20 µM
